Measured values reported in EPA's ToxValDB 9.5.

System: Rattus norvegicus
Settings: oral
[1] = subchronic, gavage, M, Sprague-Dawley, Clinical Observation: Excessive salivation Decreased spontaneous locomotors Decreased respiration rate Incomplete eyelid opening + …
[2] = short-term, duration: 28 days, gavage, M, Sprague-Dawley, Clinical Observation: Salivation Orange urinelocomotor activity decreaserespiratory rate decrease, Incomplete eye opening Staining around …
[3] = subchronic, duration: 90 days, gavage, M/F, Wistar, Clinical Observation: Salivation + Body Weight Changes: Weight gain decrease + Food Consumption: decrease + Urinalysis: Ket increase, …

Compound: CCCOCCOCCO [2-(2-Propoxyethoxy)ethanol]
- NOAEL (subchronic, duration: 6 weeks, gavage, M, COBS, CD:BR, Clinical Observation: Narcosis(initial period only) + Body Weight Changes: Terminal body weight decrease + Food Consumption: decrease(day 3 …): 814 mg/kg-day

Compound: O=C(O)c1ccccc1Cl [2-Chlorobenzoic acid]
- NOEL (subchronic, gavage, M, Sprague-Dawley, Clinical Observation: Salivation + Body Weight Changes: decrease + Food Consumption: decrease + Hematology: RBC decrease, Hgb decrease, RET …): 40 mg/kg-day

Compound: O=C1CCC(=O)O1 [Succinic anhydride]
- NOEL (subchronic, duration: 13 weeks, gavage, M/F, Fischer 344, Deaths + Clinical Observation: Lethargy Distended abdomens + Body Weight Changes: decrease + Absolute Organ Weight: Liver increase + …): 50 mg/kg-day

Compound: C=CC(=O)OCC [Ethyl acrylate]
- NOAEL (subchronic, duration: 90 days, gavage, M, Fischer 344, Necropsy: Small intestine: Reddening, duodenal mucosa Stomach: Prominent blood vessel, cardiac region): 55 mg/kg-day

Compound: O=[Se](=O)([O-])[O-].[Na+].[Na+] [Sodium selenate]
- NOEL (subchronic, drinking water, F, Fischer 344, Deaths + Body Weight Changes: decrease + Hematology: Hct increase, Hgb increase, RBC increase + Blood Chemistry: BUN increase ALT increase, …): 0.31 mg/kg-day
- NOEL (subchronic, drinking water, M/F, Fischer 344, Deaths + Body Weight Changes: decrease + Hematology: Hct increase, Hgb increase, RBC increase + Blood Chemistry: BUN increase ALT increase, …): 0.57 mg/kg-day

Compound: CC(C)(C)Oc1ccc(Cl)cc1 [1-Chloro-4-tert-butoxybenzene]
- NOAEL [1]: 100 mg/kg-day
- NOEL [1]: 20 mg/kg-day

Compound: CCCCC(CC)C(=O)OOC(C)(C)C1CCCCC1 (configuration not stated) [2-Cyclohexylpropan-2-yl 2-ethylhexaneperoxoate]
- NOEL (short-term, duration: 28 days, gavage, M/F, Clinical Observation: Salivation + Blood Chemistry: GLUC decrease, TP increase, CRN decrease, BIL increase, T-CHO increase + Absolute Organ …): < 8 mg/kg-day

Compound: COc1ccc2c3c1O[C@H]1[C@@H](O)C=C[C@H]4[C@@H](C2)N(C)CC[C@@]341 [Codeine]
- NOEL (subchronic, duration: 13 weeks, diet, F, Fischer 344, Deaths + Clinical Observation: Ruffled fur AlopeciaAbnormal posture + Body Weight Changes: decrease + Hematology: RBC decrease, Plt decrease…): < 25 mg/kg-day
- NOEL (subchronic, duration: 13 weeks, diet, M/F, Fischer 344, Deaths + Clinical Observation: Ruffled fur AlopeciaAbnormal posture + Body Weight Changes: decrease + Hematology: RBC decrease, Plt decrease…): < 37.4 mg/kg-day

Compound: CN1CCN(c2c(F)cc3c(=O)c(C(=O)O)cn(CCF)c3c2F)CC1 [Fleroxacin]
- NOEL (chronic, duration: 91 days, gavage, M/F, Wistar, Deaths + Clinical Observation: Piloerection + Body Weight Changes: Body weight decrease, Body weight gain decrease + Food Consumption: …): 45 mg/kg-day

Compound: O=C1C(Cl)=C(Cl)C(=O)N1Cc1ccccc1 [1-benzyl-3,4-dichloro-1H-pyrrole-2,5-dione]
- NOEL (short-term, duration: 28 days, gavage, M/F, Clinical Observation: Salivation + Body Weight Changes: Body weight gain decrease + Blood Chemistry: TG decrease, GLU decrease + Organ …): 40 mg/kg-day

Compound: NNC(N)=S [Thiosemicarbazide]
- NOEL (subchronic, gavage, M, Sprague-Dawley, Functional Observational Battery: Tonic convulsion Hypersensitive reaction in touch response and tail pinch response + Body Weight Changes: …): 0.4 mg/kg-day

Compound: O=[N+]([O-])c1ccc(CCl)cc1 [4-Nitrobenzyl chloride]
- NOEL (short-term, duration: 28 days, gavage, M/F, Sprague-Dawley, Clinical Observation: Salivation + Functional Observational Battery: Locomotor activity decrease + Food Consumption: decrease + Water …): < 8 mg/kg-day

Compound: O=[N+]([O-])c1ccc(NCCO)c(OCCO)c1 [HC Yellow 4]
- NOEL (subchronic, duration: 13 weeks, diet, M/F, Fischer 344, Body Weight Changes: decrease + Relative Organ Weight: Right kidney increase, Liver increase, Lungs increase, Thymus increase, Testis …): < 240 mg/kg-day

Compound: [CH3][Sn]([CH3])([Cl])[Cl] [Dimethyltin dichloride]
- NOAEL (subchronic, duration: 90 days, drinking water, M/F, Sprague-Dawley, Deaths + Clinical Observation: Died or sacrificed with poor condition (All remaining animals were sacrificed by week 6) Dehydration …): < 3.8 mg/kg-day

Compound: CCCCC(CC)COC(=O)C1CC=CCC1C(=O)OCC(CC)CCCC (configuration not stated) [Bis(2-ethylhexyl) 4-cyclohexene-1,2-dicarboxylate]
- NOEL (subchronic, duration: 42 days, gavage, M, CD(SD), Hematology: WBC decrease, LYMPH decrease, NEUT decrease, Large unstained cell decrease + Absolute Organ Weight: Kidney increase + Relative …): 100 mg/kg-day

Compound: O=C(O)c1cc(N=Nc2ccc(S(=O)(=O)Nc3ccccn3)cc2)ccc1O [Sulfasalazine]
- NOEL (subchronic, duration: 13 weeks, gavage, M/F, Fischer 344, Body Weight Changes: decrease + Blood Chemistry: TSH increase T3 decrease T4 decrease + Absolute Organ Weight: Right kidney increase + …): < 84 mg/kg-day

Compound: O=C([O-])C1=Cc2sc(Cn3ccnc3)cc2CC1.[Na+] [RS 5186]
- NOAEL (subchronic, duration: 90 days, gavage, M/F, CD, Clinical Observation: Salivation Chylous or dark red-brown urine + Absolute Organ Weight: Liver increase + Relative Organ Weight: Liver …): 30 mg/kg-day

Compound: Clc1ccccc1NNc1ccccc1Cl [1,2-Bis(2-chlorophenyl)hydrazine]
- NOEL (subchronic, gavage, M, Sprague-Dawley, Body Weight Changes: decrease(trend) + Hematology: Hgb decrease, RET increase(trend) + Blood Chemistry: T-CHO increase(trend) + Relative …): 40 mg/kg-day

Compound: c1ccc2n[nH]nc2c1 [1,2,3-Benzotriazole]
- NOEL (subchronic, gavage, M, Sprague-Dawley, Blood Chemistry: AST increase, ALT increase, TP decrease, A/G increase, PL increase, K increase): < 30 mg/kg-day

Compound: SCC1CSC(CS)CS1 (configuration not stated) [1,4-Dithiane-2,5-dimethanethiol]
- NOEL (short-term, duration: 28 days, gavage, M/F, Clinical Observation: Salivation Ataxic gait Locomotor activity decrease + Body Weight Changes: Body weight gain decrease + Food Consumption…): 20 mg/kg-day

Compound: N#Cc1ccccc1Cl [2-Chlorobenzonitrile]
- NOEL (subchronic, gavage, M, Sprague-Dawley, Urinalysis: Ketone body increase + Hematology: APTT increase + Blood Chemistry: Cho increase, PL increase, ALT increasegamma-GTP increase, …): 10 mg/kg-day

Compound: CCCC1CCC(C2CCC(=O)CC2)CC1 (configuration not stated) [4'-Propyl[1,1'-bi(cyclohexane)]-4-one]
- NOEL (short-term, duration: 28 days, gavage, M/F, Clinical Observation: Salivation + Blood Chemistry: IP increase, CRN increase, GPT increase, BIL increase, TP increase, T-CHO increase, …): 8 mg/kg-day

Compound: CC(=O)/C=C/C1=C(C)CCCC1(C)C [beta-Ionone]
- NOAEL (subchronic, duration: 90 days, diet, M/F, Wistar, Urinalysis: Ket increase, Uro increase, Transitional epithelial cell increase, Epithelial cell casts + Blood Chemistry: gamma-GTP increase, …): 96 mg/kg-day

Compound: COc1ccc([N+](=O)[O-])cc1 [p-Nitroanisole]
- NOAEL [2]: 100 mg/kg-day
- NOEL [2]: < 100 mg/kg-day

Compound: O=C(c1ccc(O)cc1)c1ccc(O)c(O)c1O [2,3,4,4'-Tetrahydroxybenzophenone]
- NOEL (subchronic, duration: 42 days, gavage, M, CD(SD), Clinical Observation: Salivation + Functional Observational Battery: Hind limb grip strength decrease + Body Weight Changes: Weight gain …): < 100 mg/kg-day

Compound: OCc1ccccc1 [Benzyl alcohol]
- NOEL (subchronic, duration: 13 weeks, gavage, M/F, Fischer 344, Deaths + Clinical Observation: Died Staggering Labored breathing Blood around nose and mouth + Body Weight Changes: decrease + …): 200 mg/kg-day

Compound: CC1(C)CC(O)CC(C)(C)N1[O] [4-Hydroxy-2,2,6,6-tetramethylpiperidin-1-yl)oxidanyl]
- NOEL (short-term, duration: 28 days, gavage, M/F, Clinical Observation: Salivation + Hematology: Trend of Anemia + Absolute Organ Weight: Spleen increase, Liver increase + Histopathology: …): 40 mg/kg-day

Compound: C=CCCCCCC [1-Octene]
- NOEL (subchronic, duration: 90 days, gavage, M/F, Urinalysis: Volume increase + Blood Chemistry: Cl decrease, CRE increase + Absolute Organ Weight: Kidney increase + Relative Organ Weight: …): 50 mg/kg-day

Compound: Cc1ccc(O)c(-n2nc3ccccc3n2)c1 [2-(2H-Benzotriazol-2-yl)-4-methylphenol]
- NOEL (subchronic, gavage, M, Sprague-Dawley, Urinalysis: Protein increase + Blood Chemistry: PL increase + Absolute Organ Weight: Liver increase + Relative Organ Weight: Liver increase…): < 30 mg/kg-day

Compound: OCCOc1ccccc1 [2-Phenoxyethanol]
- NOAEL (subchronic, duration: 90 days, gavage, M/F, Clinical Observation: Lack of grooming Lethargy Prostration + Body Weight Changes: decrease + Food Consumption: decrease + Water Consumption…): 80 mg/kg-day

Compound: COc1cc(-c2ccc(N)c(OC)c2)ccc1N.Cl.Cl [C.I. Disperse Black 6 dihydrochloride]
- NOEL (subchronic, duration: 13 weeks, drinking water, M/F, Fischer 344, Body Weight Changes: decrease + Water Consumption: decrease + Hematology: WBC decrease, Lympho decrease, Hct decrease, RBC decrease + Blood …): < 170 mg/kg-day

Compound: CCn1cc(C(=O)O)c(=O)c2cc(F)c(N3CCNC(C)C3)c(F)c21.Cl (configuration not stated) [Lomefloxacin hydrochloride]
- NOEL (chronic, duration: 91 days, gavage, M/F, Sprague-Dawley, Deaths + Clinical Observation: Prone position(dead animals) Hypothermia(dead animals) Lid closure(dead animals) Clonic convulsion(dead …): 30 mg/kg-day

Compound: CC(C)(O)C(Cl)(Cl)Cl [1,1,1-Trichloro-2-methyl-2-propanol]
- NOEL (subchronic, gavage, M, Sprague-Dawley, Clinical Observation: Staggering gait + Functional Observational Battery: Grip strength decrease, Locomotor activity decrease + Food …): < 10 mg/kg-day

Compound: Nc1ccc(S(N)(=O)=O)cc1 [Sulfanilamide]
- NOEL (short-term, duration: 28 days, gavage, M/F, Sprague-Dawley, Clinical Observation: Salivation + Functional Observational Battery: Auditory response decrease, Disappearance, aerial righting reflex …): 50 mg/kg-day

Compound: Cl.Nc1ccc(Cl)cc1 [4-Chloroaniline hydrochloride]
- NOEL (subchronic, duration: 13 weeks, gavage, M/F, Fischer 344, Deaths + Body Weight Changes: decrease + Hematology: WBC increase, Lympho increase, Hct decrease, Hgb decrease, Methemoglobin increase, RBC …): < 5 mg/kg-day

Compound: CC(C)(C)S [t-Butyl mercaptan]
- NOEL (subchronic, gavage, M, CD(SD), Clinical Observation: Salivation + Body Weight Changes: decrease + Food Consumption: decrease + Hematology: RBC decrease, HGB decrease, HCT …): < 10 mg/kg-day
- NOEL (subchronic, gavage, M, Sprague-Dawley, Body Weight Changes: decrease200 + Hematology: MCHC decrease, APTT increase, RBC decrease, Hgb decrease, Hct decrease, Plt increase, PT …): < 10 mg/kg-day

Compound: CCn1cc(C(=O)O)c(=O)c2cc(F)c(N3CCNCC3)nc21.CCn1cc(C(=O)O)c(=O)c2cc(F)c(N3CCNCC3)nc21.CCn1cc(C(=O)O)c(=O)c2cc(F)c(N3CCNCC3)nc21.O.O
- NOEL (short-term, duration: 28 days, gavage, M/F, Sprague-Dawley, Clinical Observation: Loose stool + Body Weight Changes: Body weight gain decrease + Food Consumption: decrease + Urinalysis: White crystal…): 120 mg/kg-day

Compound: C=CCOC(=O)C(=C)C [Allyl methacrylate]
- NOAEL (subchronic, gavage, M, Sprague-Dawley, Clinical Observation: Hypersalivation + Body Weight Changes: Weight gain decrease + Absolute Organ Weight: Adrenal decrease, Thymus increase…): 15 mg/kg-day

Compound: CC(=O)CCC=C(C)C [6-Methyl-5-hepten-2-one]
- NOAEL [3]: 50 mg/kg-day
- NOEL [3]: < 50 mg/kg-day

Compound: CN(C)CCN(C)CCN(C)C [1,1,4,7,7-Pentamethyldiethylenetriamine]
- NOEL (subchronic, gavage, M, Sprague-Dawley, Body Weight Changes: decrease200 + Blood Chemistry: Alb decrease, IP increase + Relative Organ Weight: Liver increase + Histopathology: "…): 40 mg/kg-day

Compound: Cc1cccc(C)c1N [2,6-Dimethylaniline]
- NOEL (subchronic, duration: 13 weeks, gavage, M/F, Fischer 344, Body Weight Changes: decrease + Hematology: WBC decrease, RBC decrease, Hgb decrease, Hct decrease, Lympho decrease + Blood Chemistry: K …): 20 mg/kg-day
